According to patent US9629891B2, “Products and methods for aortic abdominal aneurysm” (NATIONWIDE CHILDREN'S HOSPITAL, INC., priority 2011, dated 2017):
“Also recorded” adds a separate entry of the source.

What was measured:
RAW 264.7 [1] = assay: Inflammatory mediator mRNA expression (qRT-PCR) in unstimulated RAW cells; assay type: cell-based; conditions: 10 μM DAPT for 6 days, vs untreated cells
Experimental: (§1) The aorta was isolated from experimental mice at day 28 of AngII infusion and immediately frozen in RNA-later (Ambion, Austin, Tex.). Abdominal aorta of equal length was cut from the abdominal region of ApoE^−/− and Notch1^+/−ApoE^−/− mice and RNA was extracted using RNAqueous kit (Ambion, Austin, Tex.). RAW cells (264.7) were obtained from ATCC (Manassas, Va.) and were cultured following the manufacturer's instructions. Naïve macrophages were collected from the peritoneal cavity of ApoE^−/− or Notch1^+/−ApoE^−/− mice by standard protocol [Hans et al., Cardiovasc. Pathol., 185:1894-902 (2011); Hans et al., Cardiovasc. Res., 78:429-439 (2008); Oumouna-Benachour et al., Circulation, 115:2442-2450 (2007)]. The isolated macrophages were cultured in RPMI containing 10% FCS for 3 days and were then treated with 100 nM LPS or diluent for 3 h in RPMI containing 1% FCS. Following treatment, the macrophages were washed with cold PBS and RNA was extracted using RNAeasy kit (Qiagen, Valencia, Calif.). cDNA was synthesized using SuperScript® VILO™ cDNA Synthesis Kit (Invitrogen, Carlsbad, Calif.) and subjected to qRT-PCR by SYBR Green RT-PCR kit (Applied Biosystems, Foster City Calif.) using Applied Biosystems 7500 Fast Real-Time PCR System (Foster City Calif.). qRT-PCR was performed in triplicate and fold change determined by standardization to 18S rRNA. Results were normalized to the controls. […]

RAW 264.7 [2] = assay: Inflammatory mediator mRNA expression (qRT-PCR) in LPS-stimulated RAW cells; assay type: cell-based; conditions: pre-treatment with 10 μM DAPT, RAW cells with 100 ng/ml LPS for 3 hours, vs non-DAPT treated cells
Experimental: as §1

[3] = system: AngII-induced mouse model of AAA; assay: Therapeutic Notch inhibition (start day 3 or day 8) in AngII-induced mouse model of AAA, Example 7; assay type: in vivo; conditions: ApoE−/− mice
Text: In the study, mice were divided into four groups: • ApoE^−/− mice with AngII plus vehicle for 28 days (n=6); • ApoE^−/− mice with AngII plus DAPT (7 days prior to AngII infusion, n=6); • ApoE^−/− mice with AngII plus DAPT (3 days after AngII infusion, n=9); and • ApoE^−/− mice with AngII plus DAPT (8 days after AngII infusion, n=9).
These time periods were carefully selected to determine the effect of Notch inhibition on the formation of AAA before the onset of disease (−7 days), at day 3 (onset of inflammation) and day 8 (elastin degradation and cellular remodeling).
NOTCH inhibitor (DAPT; 10 mg/kg; […] in corn oil) given at day 3 and day 8 after the AngII infusion reduced the progression of active AAA in the mouse model.

[4] = system: AngII-induced mouse model of AAA; assay: Prophylactic Notch inhibition in AngII-induced mouse model of AAA; assay type: in vivo; conditions: ApoE−/− mice
Experimental: Mini osmotic pumps (Model 2004; Alzet, Cupertino, Calif.) containing AngII (1000 ng/min/kg) or saline were implanted subcutaneously in the neck region of anesthetized mice following standard protocol [Daugherty et al., J. Clin. Invest., 105:1605-1612 (2000)]. Three independent experiments were performed to determine the effect of Notch1 haploinsufficiency on the formation of AAA. In one of these three experiments the effects of pharmacological inhibition of Notch were tested on AAA formation. Mice (n=3) were injected with a Notch inhibitor, DAPT (10 mg/kg dissolved in 10% ethanol, 90% corn oil), three times a week subcutaneously starting one week before the implantation of osmotic pump and continuing for an additional 28 days until the mice were sacrificed, as explained for FIG. 6. [Loane et al., Nat. Med., 15:377-379 (2009); Lanz et al., J. Pharmacol. Exp. Ther., 305:864-871 (2003); Sjolund et al., J. Clin. Invest., 118:217-228 (2008)].
Two dimensional (B-mode) in vivo ultrasound images were obtained at weekly intervals after the implantation of osmotic pumps using a VisualSonics Vevo2100 imaging system (Ontario, Canada) with a mechanical transducer (MS400). After 28 days, the animals were euthanized and the aortas were dissected and fixed in 10% formalin. Minimum and maximum diameters of each vessel were determined by digitalized measurement (Zeiss AxioImager upright microscope with brightfield).
Histological examination of the abdominal aorta of the AngII and saline treated mutant mice was performed. The abdominal region of the aorta were embedded in paraffin and serial sections ([…]) were obtained. Sections were stained with hematoxylin and eosin (HE), elastin staining (Sigma, St. Louis, Mo.), and terminal deoxynucleotidyl transferasemediated dUTP nick-end labeling (TUNEL) staining (Roche, Indianapolis, Ind.). Statistical comparisons were performed using either Student's t-test or one-way ANOVA followed by the Bonferroni's Multiple Comparison Test. GraphPad PRISM V5.0 (San Diego, Calif.) was used for these comparisons and a P value<0.05 was considered significant. […]

[5] = system: AngII-induced mouse model of AAA; assay: Progression of active AAA in AngII-induced mouse model, Example 8; assay type: in vivo
Experimental: Active aneurysm was introduced in ApoE^−/− mice (n=36) by administering AngII. DAPT (10 mg/kg; 3 times a week) was injected in these mice starting either 3 days (Group II; n=12) or 8 days (Group III; n=12) after AngII infusion. Group I (n=12) received vehicle (10% alcohol in corn oil) only. The time periods were chosen so that a small aortic dilation is established before DAPT is administered.
The increased collagen content in the aorta of ApoE^−/− mice in response to AngII provides stability to the tissue against sudden rupture.

[6] = AngII infusion 28 days, DAPT 10 mg/kg three times a week from one week before AngII, vs untreated ApoE−/− mice

With `C[C@H](NC(=O)Cc1cc(F)cc(F)c1)C(=O)N[C@H](C(=O)OC(C)(C)C)c1ccccc1` [DAPT, N—[N-(3,5-Difluorophenacetyl)-L-alanyl]-S-phenylglycine t-butyl ester] the “expression of MCP-1, IL-6, TNF-α, CXCL-10, VEGF, iNOS, ICAM-1, and VCAM-1” value (RAW 264.7 [1]) was “Decreased expression; also recorded: significantly decreased”, the “expression of MCP-1, IL-6, TNF-α, CXCL-10, VEGF, iNOS, and ICAM-1” value (RAW 264.7 [2]) was “Decreased expression; also recorded: significantly reduced” and the “maximal abdominal aortic width at day 28” value ([3]; AngII, DAPT treatment started at day 3 and day 8) was “significantly decreased”. The “progression of active AAA” value ([3]; DAPT 10 mg/kg in corn oil given at day 3 and day 8 after AngII infusion) was “reduced”, the aortic diameter [4, 6] was “statistically significant reduction” and the “incidence of AAA” value [4, 6] was “statistically significant reduction”. The “histologic analysis of the aorta” value ([4]; AngII infusion, DAPT 10 mg/kg prophylactic, vs untreated mice) was “no evidence of abdominal aneurysm; also recorded: normal aortic wall architecture without infiltration of inflammatory cells”, the “luminal expansion of the abdominal aorta” value ([5]; ApoE−/− mice, AngII, DAPT 10 mg/kg 3 times a week from day 3 (Group II) or day 8 (Group III), vs vehicle, echocardiography, p<0.05) was “significantly reduced” and the “expression of MMP2 and MMP9 in the aortas” value ([5]; Group II and Group III vs Group I (vehicle), quantitative real-time PCR and immunohistochemistry) was “decreased”. The “monocyte chemotactic protein-1” value ([5]; Group III (DAPT from day 8)) was “not associated with increased monocyte chemotactic protein-1”, the “newly synthesized tropoelastin and collagen staining” value ([5]; Group III (DAPT from day 8)) was “increased expression” and the “macrophage content (CD-68)” value ([5]; Group III (DAPT from day 8) vs Group I (vehicle), marginal increase vs Group II) was “significantly less than Group I”. The “elastin fragmentation and aortic remodeling” value ([5]; both groups (DAPT from day 3 or day 8), histology) was “prevented”.
